Assay results from patent publication EP0061283A1, “Antiviral agents, their preparation and use” (BEECHAM GROUP PLC, priority 1981, dated 1982).
“And” between values parts separate entries of the source, which are not always exact repeats. Equal values may be shown once.

Columns and labels:
[1] = system: Herpes simplex type 1 virus (HFEM strain); test: Plaque reduction test in virus-infected Vero cell monolayers; assay type: cell-based; conditions: Human alphaherpesvirus 1, 144 h, concentration causing a 50% reduction in the number of virus plaques, Vero cells, 37°C for 6 days, read-out: PDD50 (the source's name)
Experimental: (§1) Vero (African Green Monkey Kidney) cells were grown to confluence in 6 well multidishes, each well being 3.5 cm in diameter. The cells were incubated with Herpes simplex type 1 virus (HFEM strain) and overlaid with 0.5 ml of 0.9% agarose (w/v) in maintenance medium containing the test compound at a range of concentrations from 50 µg/ml in half-log dilution steps. The virus infected cultures were then incubated at 37°C for 6 days before fixing in 4% formaldehyde solution and staining with carbolfuchsin. The dishes were then examined to find what concentration of test compound causing a 50% reduction in the number of virus plaques formed (PDD50 value) and the minimum concentration of test compound which killed the cell monolayer, leaving a clear zone devoid of cells and virus plaques (MTD).

[2] = Minimum concentration killing the cell monolayer (MTD) in the plaque reduction test; assay type: cell-based, African Green Monkey; conditions: monkey; minimum concentration which killed the cell monolayer; Vero cells, 37°C for 6 days
Experimental: as §1

Structure (SMILES) | IC50 [1] | MCC at 144 h [2] [µg/mL]
CCCCC(=O)OC[C@H]1O[C@@H](n2cc(/C=C/Br)c(=O)[nH]c2=O)C[C@@H]1O [Example 9, E-5-(2-Bromovinyl)-5'-O-valeryl-2'-deoxyuridine] | 0.16 µg/mL and 380 nM | > 100
CC(C)(C)C(=O)OC[C@H]1O[C@@H](n2cc(/C=C/Br)c(=O)[nH]c2=O)C[C@@H]1O [Example 13, E-5-(2-Bromoyinyl)-5'-O-pivaloyl-2'-deoxyuridine] | 0.52 µg/mL and 1.3 µM | > 100
O=C(O)CCC(=O)O[C@H]1C[C@H](n2cc(/C=C/Br)c(=O)[nH]c2=O)O[C@@H]1CO [Example 11b, E-5-(2-bromovinyl)-3'-O-(3-carboxypropionyl)-2'-deoxyuridine] | 0.18 µg/mL and 400 nM | > 100
CCCCC(=O)O[C@H]1C[C@H](n2cc(/C=C/Br)c(=O)[nH]c2=O)O[C@@H]1CO [Example 7, E-5-(2-Bromovinyl)-3'-O-valeryl-2'-deoxyuridine] | 0.18 µg/mL and 430 nM | > 100
O=C(O)CCC(=O)OC[C@H]1O[C@@H](n2cc(/C=C/Br)c(=O)[nH]c2=O)C[C@@H]1OC(=O)CCC(=O)O [Example 10, E-5-(2-Bromovinyl)-3'.5'-di-O-(3-carboxypropionyl)-2'-deoxyuridine monohydrate] | 55 µg/mL and 103 µM | > 100
CCCCC(=O)OC[C@H]1O[C@@H](n2cc(/C=C/Br)c(=O)[nH]c2=O)C[C@@H]1OC(=O)CCCC [Example 2, E-5-(2-Bromovinyl)-3',5'-di-O-valeryl-2'-deoxyuridine] | 0.2 µg/mL and 400 nM | > 100
CCCC(=O)OC[C@H]1O[C@@H](n2cc(/C=C/Br)c(=O)[nH]c2=O)C[C@@H]1OC(=O)CCC [Example 1, E-5-(2-Bromovinyl)-3',5'-di-O-butyryl-2'-deoxyuridine] | 0.2 µg/mL and 420 nM | > 100
CC(C)(C)C(=O)OC[C@H]1O[C@@H](n2cc(/C=C/Br)c(=O)[nH]c2=O)C[C@@H]1OC(=O)C(C)(C)C [Example 14, E-5-(2-bromovinyl)-3',5'-di-0-pivaloyl-2'-deoxyuridine] | 8.5 µg/mL and 17 µM | > 100
CC(=O)O[C@H]1C[C@H](n2cc(/C=C/Br)c(=O)[nH]c2=O)O[C@@H]1CO [Example 6, 3'-O-Acetyl-E-5-(2-bromovinyl)-2'-deoxyuridine] | 0.41 µg/mL and 1.1 µM | > 100
O=C(O)CCC(=O)OC[C@H]1O[C@@H](n2cc(/C=C/Br)c(=O)[nH]c2=O)C[C@@H]1O [Example 12, E-5-(2-bromovinyl)-5'-O-(3-carboxypropionyl)-2'-deoxyuridine] | 0.35 µg/mL and 800 nM | > 100
CC(=O)OC[C@H]1O[C@@H](n2cc(/C=C/Br)c(=O)[nH]c2=O)C[C@@H]1O [Example 8, 5'-O-Acetyl-E-5-(2-bromovinyl)-2'-deoxyuridine] | 0.32 µg/mL and 850 nM | > 100
